Source: patent US20230303623A1, “PEPTIDES AND METHODS OF USE” (REALTA LIFE SCIENCES, INC., priority 2020, published 2023)
“Also recorded” adds a separate entry of the source.

Legend:
[1] = Total Antioxidant Capacity (TAC) assay; conditions: highest peptide concentration 1.5 mM; compared to parent peptide
Protocol: As previously reported, the TAC (Total Antioxidant Capacity) Assay (Cell Biolabs, Inc, San Diego, CA) was used to measure the antioxidant capacity of the PIC1 variants based on the reduction of copper (II) to copper (I). The kit protocol was performed per the manufacturer's recommendations.
The antioxidant properties for the PIC1 variants were evaluated in a Total Antioxidant Capacity (TAC) assay, as previously reported. Total antioxidant activity over a range of peptide concentrations were determined for the stapled and the D-amino acid peptides based on the PA-I8Sar and PA-C9Sar backbones (FIG. 4A-4B), with the activity of the highest peptide concentration reported (1.5 mM) (FIG. 5A-5C).

[2] = tested on: purified human Pan T-cells; assay: T-cell exhaustion protocol (repeated CD3/CD28 Dynabead stimulation); assay type: cell-based; conditions: ELISA; for Caspase 3/7 levels, in words: peptides 2 mg/ml at each stimulation, day 8; for IFN-gamma levels in cell supernatants, in words / IL-2 levels in cell supernatants, in words: peptides 2 mg/ml, stimulation 2
Protocol: Purified human pan-T-cells were subject to stimulation with Dynabeads every 48 hours over the period of 8 days with cells also receiving PIC1 peptides (2 mg/ml) at each stimulation. Cells not receiving Dynabeads were run in parallel to assess background levels of Caspase 3/7 signal. At the eighth day, cells were harvested, and the levels of Caspase 3/7 determined by ELISA.
Purified human pan-T-cells were subject to stimulation with Dynabeads every 48 hours over the period of 8 days with cells also receiving PIC1 peptides (2 mg/ml) at each stimulation. Cell supernatants were collected at each stimulation and levels of IL-2 and IFN-gamma assayed by ELISA.
T-cell exhaustion is a form of T-cell dysfunction that occurs in cancer. It is generally defined by poor effector function, reduction in cytokine release (e.g., IL-2, TNF-alpha, IFN-gamma), sustained expression of inhibitory receptors (e.g., PD-1, LAG-3, CD244, CD160) with the progressive loss of effector function due to overstimulation. Exhaustion can prevent optimal control of tumor growth. Exhausted T cells are prevalent in the tumor microenvironment (TME) and can lead to T-cell apoptosis. T-cell exhaustion is reversible and pharmaceutical inhibition of T-cell exhaustion has been considered a promising strategy by many cancer researchers. To ascertain if PIC1 peptides could reverse T-cell exhaustion and increase T cell viability and effector function, a T-cell exhaustion protocol was developed. To induce T-cell exhaustion, purified human Pan T-cells were stimulated with T-Activator CD3/CD28 Dynabeads and cells were washed and re-stimulated every 48 hours. PIC1 peptides were added to the cells after each stimulation with Dynabeads. After three to four stimulations, cells were harvested for readouts which consisted of assessing T-cell apoptosis by measuring Caspase 3/7 levels and production of cytokines IL-2 and IFN-gamma, which are indicative of T-cell functionality. […] To further evaluate if PIC1 peptides could restore T-cell functionality in cells that have undergone the exhaustion protocol, the inventors next assessed production of cytokines IL-2 and IFN-gamma. Supernatants from the cells after each stimulation was collected and the cytokines measured by ELISA. […] The lower level of IFN-gamma signal was consistently seen in this assay.

VEGF [3] = target: T1, VEGF (Homo sapiens, UniProt P15692); assay: VEGF binding ELISA plate-based assay; conditions: peptides 1 mg/ml
T1 construct: Promega (bioassay)
T1 sequence (P15692 27-191 isoform P15692-4): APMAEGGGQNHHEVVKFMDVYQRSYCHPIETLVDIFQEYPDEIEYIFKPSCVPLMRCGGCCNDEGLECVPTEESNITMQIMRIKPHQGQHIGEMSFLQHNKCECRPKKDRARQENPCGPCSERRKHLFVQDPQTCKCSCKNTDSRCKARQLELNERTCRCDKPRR
Protocol: A fixed amount of PIC1 peptides (1 mg/ml) were added to the plates followed by a rabbit polyclonal antibody that recognizes the peptides and then a secondary anti-rabbit antibody conjugated with HRP. The plate was then developed by addition of TMB as the substrate for the colorimetric assay.
(§1) Angiogenesis, or the formation of new blood vessels from the established vasculature, is an essential element in tumor growth and metastasis formation. Inhibiting tumor angiogenesis is considered a major therapeutic strategy in oncology. […] The bioluminescent signal is detected in a luminometer.

VEGF [4] = target: T1, VEGF; assay: VEGF Bioassay (Promega), VEGF signaling via VEGFR-2 (KDR); assay type: cell-based
From the text: Luminescence was detected in luminometer plate reader.
as §1

HUVECs = assay: LPS-induced non-VEGF mediated angiogenesis (tube formation) in HUVECs; assay type: cell-based, human; conditions: peptides 10 mg/ml; LPS 10 ug/ml; overnight
Protocol: HUVEC cells were incubated with either RLS-0122, RLS-0150, RLS-0154, RLS-0164 and RLS-0168 followed by LPS addition and plating onto extracellular matrix. After overnight incubation, evidence of angiogenesis was determined by fluorescence microscopy. Cells receiving LPS and not receiving LPS served as positive and negative controls for angiogenesis.
Currently there are no drugs on the market to inhibit non-VEGF mediated angiogenesis. To assess whether the PIC1 peptides could inhibit non-VEGF mediated angiogenesis, the inventors developed a model of angiogenesis using human umbilical endothelial vein cells (HUVECs) in which addition of lipopolysaccharide (LPS) induces angiogenesis. HUVECs were first incubated with Cell Trace Violet dye, followed by addition of PIC1 peptides (10 mg/ml) for 1 hour at 37° C. and then treated with 10 ug/ml of LPS and placement on an extracellular matrix to promote angiogenesis. Cells were incubated overnight at 37° C. in a humidified CO2 incubator. Cells were then visualized for tube formation indicative of angiogenesis by fluorescence microscopy.

CTLA-4 = target: T2, CTLA-4 (Homo sapiens, UniProt P16410); assay: CTLA-4 Blockade Bioassay (Promega); assay type: cell-based; design: host or cells: Jurkat T cells (CTLA-4 effector cells) co-cultured with aAPC/Raji cells; conditions: increasing concentrations
T2 sequence (P16410 36-223): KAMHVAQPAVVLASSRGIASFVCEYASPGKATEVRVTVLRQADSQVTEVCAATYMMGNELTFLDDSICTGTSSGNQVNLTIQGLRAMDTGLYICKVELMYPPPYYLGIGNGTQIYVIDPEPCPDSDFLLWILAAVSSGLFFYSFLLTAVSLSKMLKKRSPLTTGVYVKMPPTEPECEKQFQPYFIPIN
Protocol: CTLA-4 effector cells were incubated with aAPC/Raji Cells in the absence or presence of increasing concentrations of anti-CTLA-4 antibody (positive control), RLS-0122, RLS-0150, RLS-0154, RLS-0164 and RLS-0168 and RLS-0088 (negative control). Luminescence was detected in luminometer plate reader. The drop-off in signal with the test peptides at high concentrations is due to cell death as a result of peptide buffer effects on the cells.
To assess if PIC1 peptides could block CTLA-4 inhibitory activity in a cell-based assay, select peptides were screened in the CTLA-4 Blockade Bioassay (Promega). This bioluminescent cell-based assay can be used to measure the potency and stability of molecules targeting CTLA-4 and consists of two genetically engineered cell lines: CTLA-4 effector cells: Jurkat T cells expressing human CTLA-4 and a luciferase reporter driven by a native promoter which responds to TCR/CD28 activation and aAPC/Raji Cells: Raji cells expressing an engineered cell surface protein designed to activate cognate TCRs in an antigen-independent manner and endogenously expressing CTLA-4 ligands CD80 and CD86. When the two cell types are co-cultured, CTLA-4 competes with CD28 for their shared ligands, CD80 and CD86 and thus inhibits CD28 pathway activation and promoter-mediated luminescence. Addition of a molecule that blocks the interaction of CTLA-4 with its ligands CD80 and CD86 results in promoter-mediated luminescence.

PD-1 binding to PD-L1 = target: T3, PD-1 binding to PD-L1 (Homo sapiens, UniProt Q9NZQ7); assay: PD-1:PD-L1 inhibitor screening ELISA; conditions: FIG. 8
T3 construct: purchased
Protocol: PIC1 peptides were allowed to bind to immobilized PD-L1 on the surface of the plate. Biotinylated PD-1 was then added and bound PD-1 detected by streptavidin-HRP reagent followed by TMB as the substrate for the colorimetric assay.
This inhibitor screening ELISA pair was designed to facilitate the identification and characterization of new PD-1 pathway inhibitors. In this assay, biotinylated human PD-1 was bound to immobilized human PD-L1 and a colorimetric sandwich ELISA platform was used. Plates were coated with human PD-L1 followed by incubation with various PIC1 peptides. Human PD-1-Biotin was then allowed to bind the coated human PD-L1 followed by addition of streptavidin-HRP. TMB was then added as the colorimetric HRP substrate and the wells of the plate analyzed in a plate reader at an absorbance of 450 nm.
The immune checkpoint pathway is an area of significant interest in cancer research. PD-1 is one of the best characterized checkpoint proteins. The binding between PD-1 and its ligand PD-L1 suppresses T-cell activation and allows cancer cells to escape from body's immune surveillance. Therefore, the pharmaceutical inhibition of PD-1 or its ligand has been considered a promising strategy by many cancer researchers. To ascertain if these PIC1 derivatives could inhibit PD-1 interaction with PD-L1, a commercial ELISA kit was utilized. […]

[5] = without PEGylation; as described in U.S. Pat. No. 10,005,818; cited from earlier work

T3 sequence (Q9NZQ7 19-238 limits assumed): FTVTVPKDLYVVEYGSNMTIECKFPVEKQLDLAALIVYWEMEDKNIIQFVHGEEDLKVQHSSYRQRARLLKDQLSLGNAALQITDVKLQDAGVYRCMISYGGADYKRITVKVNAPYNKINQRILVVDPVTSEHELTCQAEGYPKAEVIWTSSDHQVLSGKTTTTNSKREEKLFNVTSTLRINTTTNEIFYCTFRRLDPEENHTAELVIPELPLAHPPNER

Row | Substance | total antioxidant capacity, in words [1] | Caspase 3/7 levels, in words ([2]; listed as RLS-0164) | IFN-gamma levels in cell supernatants, in words ([2]; listed as RLS-0164) | IL-2 levels in cell supernatants, in words ([2]; listed as RLS-0164) | binding to VEGF, in words (VEGF [3]) | inhibition of VEGF signaling via VEGFR-2 (luminescence), in words (VEGF [4]) | tube formation / angiogenesis inhibition, in words (HUVECs) | inhibition of CTLA-4 mediated cell signaling (increase in luminescence), in words (CTLA-4; listed as RLS-0164) | inhibition of binding of PD-1 to PD-L1, in words (PD-1 binding to PD-L1) | solubility in water [5] | inhibition of CTLA-4 mediated cell signaling (increase in luminescence), in words (CTLA-4) | Caspase 3/7 levels, in words ([2]; listed as RLS-0168) | IFN-gamma levels in cell supernatants, in words ([2]; listed as RLS-0168) | IL-2 levels in cell supernatants, in words ([2]; listed as RLS-0168) | inhibition of CTLA-4 mediated cell signaling (increase in luminescence), in words (CTLA-4; listed as RLS-0168)
1 | IALILEPI(Sar)dCQERAA (IALILEPIXCQERAA; D-Cys; sarcosine; MOD_RES (9)..(9) Sarcosine; MOD_RES (10)..(10) D-amino acid) [PA-0164] | enhanced activity | decreased levels; also recorded: reduced levels | showed IL-2 and IFN-gamma signal at stimulation 2; also recorded: increased levels | showed IL-2 and IFN-gamma signal at stimulation 2; also recorded: increased levels | binding with high affinity | did not inhibit signaling | no detectable tube formation | showed inhibitory activity; also recorded: able to inhibit CTLA-4 mediated cell signaling | – | – | – | – | – | – | –
2 | IALILEP(Sar)CCQERAA (IALILEPXCCQERAA; sarcosine at position 8; MOD_RES (8)..(8) Sarcosine) [PA-0088, parent peptide, sarcosine at position 8 of PIC1] | – | – | – | – | – | – | – | – | did not inhibit | water soluble without PEGylation | no inhibitory over background | – | – | – | –
3 | IALILEPI(Sar)CQERdAA (IALILEPIXCQERAA; D-Ala; sarcosine; MOD_RES (9)..(9) Sarcosine; MOD_RES (14)..(14) D-amino acid) [PA-0168] | – | – | – | – | – | did not inhibit signaling | no detectable tube formation | – | – | – | – | very low to undetectable levels; also recorded: reduced levels | detectable at stimulation 2; also recorded: increased levels | detectable IL-2 at stimulation 2; also recorded: increased levels | showed inhibitory activity; also recorded: able to inhibit CTLA-4 mediated cell signaling
